The values below are quoted from earlier work in US6955766B2, “Method for reducing harmful organisms in currents of water” (priority 1999, dated 2005).

For this data set, the system named is zebra mussels. The conditions noted are these: batchwise treatment of water.

Structures are written as SMILES.

With `CC(=O)OO` [peroxyacetic acid], the “concentration necessary to achieve an acceptable mortality rate of the mussels in a sufficiently short time” value was at least 10 mg/L.
